Active and inactive are the calls of the source. The calls are words filed in the database; no cut-off is given here.
Tests used:
[1] = biological target: Ephrin type-A receptor 2 (Homo sapiens, UniProt P29317); assay: Inhibition of human EphA2 by FRET assay
[2] = tested on: Plasmodium berghei; assay: Antimalarial activity against Plasmodium berghei sporozoites expressing luciferase infected in human HepG2-A16-CD81 cells assessed as reduction in parasite growth incubated for 18 hrs; format: functional, organism-based; settings: HepG2-A16-CD81, 18 h
[3] = tested on: Plasmodium falciparum; assay: Antimalarial activity against synchronized Plasmodium falciparum Dd2 assessed as reduction in parasite growth at early asexual stage treated 26 hrs post-invasion measured after 72 hrs by SYBR green I dye based microscopy; format: functional, organism-based
[4] = tested on: Plasmodium falciparum; assay: Antimalarial activity against synchronized Plasmodium falciparum Dd2 at 5 times EC50 treated 42 hrs post-invasion measured after 54 hrs post-invasion by YOYO-1 staining based flow cytometry; format: functional, organism-based; settings: time 12.0 hrs
[5] = tested on: Plasmodium falciparum; assay: Antimalarial activity against patient-derived ring-stage Plasmodium falciparum clinical isolate from Tororo town of Uganda infected in O+ RBCs assessed as reduction in parasitemia incubated for 72 hrs by SYBR green I dye based analysis; format: functional, organism-based, RBC; settings: Erythrocyte
[6] = tested on: Plasmodium falciparum; assay: Antimalarial activity against synchronized Plasmodium falciparum Dd2 assessed as malformation of parasites at 5 times EC50 treated 18 to 30 hrs post-invasion measured after 54 hrs post-invasion by Geimsa staining based microscopy; format: functional, organism-based; settings: time 24-36 hrs
[7] = tested on: Plasmodium berghei; assay: Antimalarial activity against […] Plasmodium berghei sporozoites expressing GFP-Luc SMcon infected in Swiss Webster mouse assessed as reduction in parasitemia at 15 mg/kg, iv pretreated for 6 hrs followed by parasite infection measured after 2 to 6 days post-infection by IVIS imaging analysis; format: functional, organism-based; settings: time 2.25-6.25 day
[8] = tested on: Plasmodium falciparum; assay: Antimalarial activity against patient-derived ring-stage Plasmodium falciparum clinical isolate from Busiu town of Uganda infected in O+ RBCs assessed as reduction in parasitemia incubated for 72 hrs by SYBR green I dye based analysis; format: functional, organism-based, RBC; settings: Erythrocyte
[9] = tested on: Plasmodium falciparum; assay: Antimalarial activity against artemisinin-resistant synchronized early ring stage Plasmodium falciparum IPC 5202 (MRA-1240) clinical isolate assessed as decrease in parasite survival at ring stage at 10 times EC50 treated for 48 hrs followed by compound removal measured after 72 hrs by geimsa staining based microscopy; format: functional, organism-based
[10] = Tmax in mouse at 2 mg/kg, iv; format: ADME, organism-based; settings: in vivo
[11] = AUC (infinity) in mouse at 2 mg/kg, iv; format: ADME, organism-based; settings: in vivo
[12] = Cmax in mouse at 10 mg/kg, po; format: ADME, organism-based; settings: in vivo
[13] = tested on: Plasmodium falciparum; assay: Antimalarial activity in blood-stage Plasmodium falciparum Dd2-B2 infected in human O+ erythrocytes assessed as minimum inoculum of resistance at 3 times […] measured for 50 days by blood smear analysis; format: functional; settings: time 50 day
[14] = tested on: Plasmodium falciparum; assay: Antimalarial activity against artemisinin-resistant synchronized early ring stage Plasmodium falciparum IPC 5202 (MRA-1240) clinical isolate assessed as decrease in parasite survival at ring stage at 10 times EC50 treated for 6 hrs followed by compound removal measured after 72 hrs by geimsa staining based microscopy; format: functional, organism-based
[15] = Metabolic stability in mouse liver microsomes assessed as intrinsic clearance; format: ADME, Liver cells
[16] = tested on: Plasmodium berghei; assay: Antimalarial activity against blood-stage Plasmodium berghei sporozoites expressing GFP-Luc SMcon infected in Swiss Webster mouse assessed as reduction in parasitemia at 15 mg/kg, iv pre-infected with mouse RBC containing Plasmodium berghei sporozoites followed by compound administration measured for 2 to 16 days post-infection by SYBR Green I dye based flow cytometry; format: functional, organism-based; settings: Erythrocyte, time 2-16 day
[17] = AUC (last) in mouse at 2 mg/kg, iv; format: ADME, organism-based; settings: in vivo
[18] = Cmax in mouse at 2 mg/kg, iv; format: ADME, organism-based; settings: in vivo
[19] = tested on: Plasmodium falciparum; assay: Antimalarial activity against synchronous blood-stage Plasmodium falciparum 3D7 assessed as log of parasite reduction ratio at 10 times EC50 treated every 24 hrs for 120 hrs followed by compound washout and subsequent addition of RBCs measured after 21 days; format: functional
[20] = tested on: Plasmodium falciparum; assay: Antimalarial activity against Plasmodium falciparum harboring CARL I1139K mutation assessed as reduction in parasitemia incubated for 72 hrs by SYBR green I dye based analysis; format: functional, organism-based
[21] = tested on: Plasmodium falciparum; assay: Antimalarial activity against Plasmodium falciparum harboring AcAS A597V mutation assessed as reduction in parasitemia incubated for 72 hrs by SYBR green I dye based analysis; format: functional, organism-based
[22] = tested on: Plasmodium falciparum; assay: microbe, parasite or virus in culture; settings: Dd2, 72 h
Description: Antimalarial activity against wild-type Plasmodium falciparum Dd2 assessed as reduction in parasitemia incubated for 72 hrs by SYBR green I dye based analysis

[23] = Oral bioavailability in mouse at 10 mg/kg; format: ADME, organism-based; settings: in vivo
[24] = Half life in mouse at 10 mg/kg, po; format: ADME, organism-based; settings: in vivo
[25] = tested on: Plasmodium falciparum; assay: Antimalarial activity against Plasmodium falciparum harboring PI4K S1320L mutation assessed as reduction in parasitemia incubated for 72 hrs by SYBR green I dye based analysis; format: functional, organism-based
[26] = tested on: Plasmodium falciparum; assay: Antimalarial activity against artemisinin-sensitive synchronized early ring stage Plasmodium falciparum IPC 5188 (MRA-1239) clinical isolate assessed as decrease in parasite survival at ring stage at 10 times EC50 treated for 6 hrs followed by compound removal measured after 72 hrs by geimsa staining based microscopy; format: functional, organism-based
[27] = tested on: Plasmodium falciparum; assay: Antimalarial activity against synchronized Plasmodium falciparum Dd2 assessed as reduction in parasite growth at early asexual stage treated 36 hrs post-invasion measured after 72 hrs by SYBR green I dye based microscopy; format: functional, organism-based
[28] = tested on: Plasmodium falciparum; assay: Antimalarial activity in ring-stage Plasmodium falciparum Dd2-B2 infected in human O+ erythrocytes assessed as reduction in parasitemia incubated for 72 hrs by SYBR Green I/ MitoTracker Deep Red dye based flow cytometry; format: functional, organism-based; settings: Dd2-B2, 72 h
[29] = AUC (last) in mouse at 10 mg/kg, po; format: ADME, organism-based; settings: in vivo
[30] = tested on: Plasmodium falciparum; assay: Antimalarial activity against synchronized early ring stage Plasmodium falciparum 3D7 (MRA-152) clinical isolate assessed as decrease in parasite survival at ring stage at 10 times EC50 treated for 6 to 48 hrs followed by compound removal measured after 72 hrs by geimsa staining based microscopy; format: functional, organism-based
[31] = tested on: Plasmodium falciparum; assay: Antimalarial activity against synchronous blood-stage Plasmodium falciparum 3D7 assessed as duration of lag phase at 10 times EC50 treated every 24 hrs for 120 hrs followed by compound washout and subsequent addition of RBCs measured after 21 days by parasite reduction ratio assay; format: functional
[32] = tested on: Plasmodium falciparum; assay: Antimalarial activity against patient-derived ring-stage Plasmodium falciparum clinical isolate from Patongo town of Uganda infected in O+ RBCs assessed as reduction in parasitemia incubated for 72 hrs by SYBR green I dye based analysis; format: functional, organism-based, RBC; settings: Erythrocyte
[33] = tested on: Plasmodium falciparum; assay: Antimalarial activity against artemisinin-sensitive synchronized early ring stage Plasmodium falciparum IPC 5188 (MRA-1239) clinical isolate assessed as decrease in parasite survival at ring stage at 10 times EC50 treated for 48 hrs followed by compound removal measured after 72 hrs by geimsa staining based microscopy; format: functional, organism-based
[34] = tested on: Plasmodium falciparum; assay: Antimalarial activity against artemisinin-resistant/piperaquine-sensitive synchronized early ring stage Plasmodium falciparum IPC 5202 (MRA-1240) clinical isolate assessed as decrease in parasite survival at ring stage at 10 times EC50 treated for 6 to 48 hrs followed by compound removal measured after 72 hrs by geimsa staining based microscopy; format: functional, organism-based
[35] = tested on: Plasmodium falciparum; assay: microbe, parasite or virus in culture; settings: Dd2, 72 h; remark: listed apart in the source
Description: Antiplasmodial activity against asynchronous Plasmodium falciparum Dd2 assessed as parasite growth reduction incubated for 72 hrs by SYBR Green I dye based analysis

[36] = Selectivity index, ratio of EC50 for human HepG2 cells to EC50 for multidrug-resistant Plasmodium falciparum Dd2 at ring stage infected in A+ erythrocytes; format: toxicity, cell-based; settings: read-out: Ratio EC50

Chain of Ephrin type-A receptor 2 (P29317 whole entry): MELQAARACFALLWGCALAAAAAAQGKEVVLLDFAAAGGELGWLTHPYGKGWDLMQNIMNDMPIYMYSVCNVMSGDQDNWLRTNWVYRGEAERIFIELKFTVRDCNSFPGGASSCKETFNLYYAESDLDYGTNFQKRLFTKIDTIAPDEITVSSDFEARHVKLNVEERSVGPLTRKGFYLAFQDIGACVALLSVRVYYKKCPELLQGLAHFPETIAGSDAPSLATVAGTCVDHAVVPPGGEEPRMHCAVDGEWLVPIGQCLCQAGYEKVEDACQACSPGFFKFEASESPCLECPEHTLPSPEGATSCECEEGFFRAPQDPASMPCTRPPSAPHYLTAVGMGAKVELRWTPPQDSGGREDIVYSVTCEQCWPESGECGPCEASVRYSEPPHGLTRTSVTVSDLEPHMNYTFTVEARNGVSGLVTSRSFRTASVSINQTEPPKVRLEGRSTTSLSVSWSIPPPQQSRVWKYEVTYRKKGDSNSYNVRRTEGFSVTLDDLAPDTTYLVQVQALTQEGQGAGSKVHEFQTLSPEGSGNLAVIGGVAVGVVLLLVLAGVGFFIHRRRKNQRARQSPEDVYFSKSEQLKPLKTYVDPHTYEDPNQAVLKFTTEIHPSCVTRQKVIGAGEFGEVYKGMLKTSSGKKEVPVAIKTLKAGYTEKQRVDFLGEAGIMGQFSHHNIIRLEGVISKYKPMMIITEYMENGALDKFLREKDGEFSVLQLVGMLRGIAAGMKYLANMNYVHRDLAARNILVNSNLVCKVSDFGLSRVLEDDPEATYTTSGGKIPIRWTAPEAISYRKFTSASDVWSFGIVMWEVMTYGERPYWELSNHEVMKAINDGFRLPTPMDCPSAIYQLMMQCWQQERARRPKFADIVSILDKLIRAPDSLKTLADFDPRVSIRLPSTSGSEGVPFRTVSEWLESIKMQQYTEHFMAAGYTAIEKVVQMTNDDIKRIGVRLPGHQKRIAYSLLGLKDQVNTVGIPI

Question: Which results are given for `CCN1CCN(Cc2ccc(NC(=O)c3cc(Cl)cc(NC(=O)c4cncc(-c5cccs5)c4)c3)cc2C(F)(F)F)CC1`?
Answer: IC50 [1]: > 10000 nM; EC50 [2]: 1770 nM; EC50 [3]: 69.7 nM; Activity [4]: Active; EC50 [5]: 9.2 nM; Activity [6]: Active; Activity [7]: Active; EC50 [8]: 9.2 nM; Activity [9]: Active; Tmax [10]: 4.8 min; AUC(0-inf) [11]: 8160 ng·h/mL; Cmax [12]: 153 ng/mL; Activity [13]: >7; Activity [14]: inactive; intrinsic clearance [15]: 9 µL/min/mg; Activity [16]: Active; AUC(0-t) [17]: 6860 ng·h/mL; Cmax [18]: 11100 ng/mL; log(activity) [19]: 3.75; EC50 [20]: 65.8 nM; EC50 [21]: 40.5 nM; EC50 [22]: 51.2 nM; bioavailability [23]: 4.8%; half-life [24]: 5.71 h; EC50 [25]: 59.2 nM; Activity [26]: inactive; EC50 [27]: 80 nM; EC50 [28]: 40.6 nM; AUC(0-t) [29]: 866 ng·h/mL; EC50 [30]: 61.1 nM; Time [31]: 0 h; EC50 [32]: 9.2 nM; Activity [33]: Active; EC50 [34]: 72.2 nM; EC50 [35]: 80 nM; selectivity ratio [36]: 45
